For one series, the system named is mouse PI3K p85. Description: Inhibition of mouse PI3K p85 mRNA levels by antisense oligonucleotides, real-time quantitative RT-PCR. Type of series: cell-based. Further details: concentration or dose not given beside the values. As to conditions: chimeric phosphorothioate 2′-MOE gapmers, averaged from two experiments. Here is the method: Cells were harvested 16 hours after oligonucleotide treatment.
Target sites are indicated by nucleotide numbers, as given in the sequence source reference (Genbank accession no. U50413; SEQ ID NO: 48), to which the oligonucleotide binds.
Cytidine residues are 5-methylcytidines throughout the oligonucleotides.
Data were obtained by real-time quantitative RT-PCR as described in other examples herein and are averaged from two experiments. […] If present, “N.D.” indicates “no data”.

For another series, the system named is PI3K p85 mRNA. The series can be described thus: PI3K p85 mRNA expression in liver and fat of treated mice. Type of series: in vivo, mouse. Here is the method:
Ob/ob mice are used as a model of obesity. The ob/ob phenotype is due to a mutation in the leptin gene on a C57BL/6J-Lep(ob) background.
In accordance with the present invention, the effects of ISIS 131410 (SEQ ID NO: 56) on PI3K p85 mRNA expression was investigated in the ob/ob mouse model of obesity.
Mice were treated at a dose of 25 mg/kg of ISIS 141925 or 25 mg/kg of ISIS 131410.
Treatment was continued for two weeks after which the mice were sacrificed and tissues collected for mRNA analysis. RNA values were normalized and are expressed as a percentage of saline treated control.
Lean littermates (ob/wt) were also examined for mRNA reduction of PI3K p85 in the liver at doses of 25 and 50 mg/kg of ISIS 131410 or saline treatment. In these animals, at both doses, the level of expression was reduced only minimally to 80% of control.

A further series concerns PI3K p85 splice variants. Description: Expression of PI3K p85 splice variants in liver, immunoprecipitation with p110 and Western blot with p85pan antibody. As to conditions: livers of both ob/ob and wild-type mice. Type of series: in vivo, mouse. The text has this: ISIS 131410 is one of several antisense oligonucleotides of the present invention that hybridize to the longer p85α splice variant and not to the p55α or the p50α splice variant. Studies were therefore designed to study the effects of this antisense oligonucleotide on expression product of PI3K p85α splice variant.

Series [1] is described as follows: Serum insulin levels in ob/ob mice. The settings on record: male ob/ob mice; 50 mg/kg intraperitoneal once a week for two weeks. Type of series: in vivo, mouse. From the text:
Treatment was continued for two weeks with serum insulin levels being measured on day 14.

Setting [2] is: male ob/ob mice, 25 mg/kg intraperitoneal once a week for two weeks, percentage of saline treated control.

With “cctggccatcactgaatcca (CCTGGCCATCACTGAATCCA; chemistry not given here) [ISIS 131410]”, the “% Inhib. of mouse PI3K p85 mRNA levels” value with mouse PI3K p85 was “at least 60%”. Besides, the “PI3K p85 mRNA level in liver” value in the series with PI3K p85 mRNA (lean littermates (ob/wt), at both doses, 25 and 50 mg/kg) is 80 % of control. Besides, in the series with PI3K p85 mRNA (setting [2]), the “PI3K p85 mRNA level in fat” value is listed as 55 % of control and the “PI3K p85 mRNA level in liver” value was 52 % of control. The “Species of PI3K p85 splice variant present in liver” value in the series with PI3K p85 splice variants is “alters the species of PI3K p85 variant present in favor of the p50α variant”. Further, the “Serum insulin level at day 14” value in series [1] was 5 ng/mL. Also, under “mouse, in vivo”, the “Hypoglycemia as a result of oligonucleotide treatment” value is recorded as “no hypoglycemia induced”. Further, the “Blood glucose level at day 14” value (ob/ob mice, 25 or 50 mg/kg intraperitoneal once a week, starting level 250 mg/dL at day 1) came to 150 mg/dL. Further, under “ob/ob mice, all doses (25 or 50 mg/kg) intraperitoneal once a week, starting level 250 mg/dL at day 1”, the “Blood glucose level at day 7” value is 180 mg/dL. Further, the “Blood glucose level, constant throughout the study (average)” value (wild-type mice, all treatment groups (25 or 50 mg/kg), two weeks) stood at 150 mg/dL.

The record behind these values is US20040077580A1, “Antisense modulation of PI3K P85 Expression” (priority 2000, published 2004).
